According to patent publication US9267949B2, “Alkylamino BODIPY dyes as selective fluorescent probes for proteins and mouse embryonic stem cells” (National University of Singapore, priority 2011, dated 2016):

What was measured:
[1] = in EtOH, excitation at 510 nm; cited from earlier work
[2] = Quantum yield measurements; type: physicochemical; conditions: referred to Rhodamine B in EtOH, excitation 510 nm, emission integrated 540-800 nm
How it was run: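 Integrated fluorescence emission from 540 to 800 nm was referenced to Rhodamine B in EtOH (Φ=0.70) after excitation at 510 nm. Quantum yield was calculated with correction for solvent refractive index and absorbance at the excitation wavelength.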

[3] = Spectroscopic properties of the BDM library (absorbance and emission maxima); type: physicochemical

| φ (quantum yield) [2] | λmax (ABS) [3] [nm] | λmax (EM) [3] [nm] | SMILES | Quantum yield of standard (ΦRho-B) [1] |
| --- | --- | --- | --- | --- |
| 0.25 | 554 | 563 | COc1ccc(Oc2cccc(/C=C/c3cc(C)c4n3[B-](F)(F)[N+]3=CC=CC3=C4CCN)c2)cc1 [BDM-42] |  |
| 0.05 | 562 |  | COc1cc(Cl)cc(/C=C/C2=[N+]3C(=C(CCN)c4cccn4[B-]3(F)F)C(C)=C2)c1O [BDM-275] |  |
| 0.24 | 562 | 572 | Cc1cc(/C=C/c2ccc(C=O)cc2)n2c1C(CCN)=C1C=CC=[N+]1[B-]2(F)F [BDM-49] |  |
| 0.59 | 559 | 574 | COc1ccccc1/C=C/C1=[N+]2C(=C(CCN)c3cccn3[B-]2(F)F)C(C)=C1 [BDM-198] |  |
| 0.24 | 549 | 563 | CC1=CC(/C=C/c2ccccc2OC(F)(F)F)=[N+]2C1=C(CCN)c1cccn1[B-]2(F)F [BDM-365] |  |
| 0.05 | 600 | 683 | Cc1cc(/C=C/c2ccc(N(C)CCC#N)cc2)n2c1C(CCN)=C1C=CC=[N+]1[B-]2(F)F [BDM-3] |  |
| 0.23 | 564 | 586 | CCOc1ccc(/C=C/C2=[N+]3C(=C(CCN)c4cccn4[B-]3(F)F)C(C)=C2)cc1 [BDM-429] |  |
| 0.14 | 567 | 584 | Cc1cc(/C=C/c2ccco2)n2c1C(CCN)=C1C=CC=[N+]1[B-]2(F)F [BDM-22] |  |
| 0.26 | 559 | 571 | CCCCc1ccc(/C=C/C2=[N+]3C(=C(CCN)c4cccn4[B-]3(F)F)C(C)=C2)cc1 [BDM-263] |  |
| 0.36 | 558 | 574 | CC1=CC(/C=C/c2ccc(Oc3cccc(Cl)c3)cc2)=[N+]2C1=C(CCN)c1cccn1[B-]2(F)F [BDM-290] |  |
| 0.53 | 554 | 567 | Cc1cc(/C=C/c2ccccc2-c2ccccc2)n2c1C(CCN)=C1C=CC=[N+]1[B-]2(F)F [BDM-40] |  |
| 0.30 | 554 | 570 | CC1=CC(/C=C/c2ccsc2)=[N+]2C1=C(CCN)c1cccn1[B-]2(F)F [BDM-369] |  |

The remaining lines, values behind:

| SMILES | φ (quantum yield) [2] | λmax (ABS) [3] [nm] | λmax (EM) [3] [nm] | Quantum yield of standard (ΦRho-B) [1] |
| --- | --- | --- | --- | --- |
| CCN(CC)c1ccc2c(-c3ccccc3C(=O)O)c3ccc(=[N+](CC)CC)cc-3oc2c1.[Cl-] [Rhodamine B] |  |  |  | 0.70 |
| CC1=CC(/C=C/c2cccc(O)c2)=[N+]2C1=C(CCN)c1cccn1[B-]2(F)F [BDM-105] | 0.18 | 556 | 567 |  |
| COc1cc(Br)cc(/C=C/C2=[N+]3C(=C(CCN)c4cccn4[B-]3(F)F)C(C)=C2)c1OC [BDM-228] | 0.24 | 557 | 567 |  |
| CCc1ccc(/C=C/C2=[N+]3C(=C(CCN)c4cccn4[B-]3(F)F)C(C)=C2)cc1[N+](=O)[O-] [BDM-252] | 0.08 | 556 | 569 |  |
| COc1ccc(/C=C/C2=[N+]3C(=C(CCN)c4cccn4[B-]3(F)F)C(C)=C2)cc1Cl [BDM-274] | 0.46 | 562 | 577 |  |
| CC1=CC(/C=C/c2ccccc2Oc2ccc(F)cc2)=[N+]2C1=C(CCN)c1cccn1[B-]2(F)F [BDM-341] | 0.37 | 556 | 570 |  |
| CCOc1ccc(/C=C/C2=[N+]3C(=C(CCN)c4cccn4[B-]3(F)F)C(C)=C2)c(OCC)c1 [BDM-316] | 0.46 | 572 | 610 |  |
| Cc1ccc2cccc(/C=C/c3cc(C)c4n3[B-](F)(F)[N+]3=CC=CC3=C4CCN)c2c1 [BDM-34] | 0.65 | 547 | 581 |  |
| CC1=CC(/C=C/c2cc(F)ccc2O)=[N+]2C1=C(CCN)c1cccn1[B-]2(F)F [BDM-318] | 0.11 | 563 | 576 |  |
| COc1ccc(/C=C/c2cc(C)c3n2[B-](F)(F)[N+]2=CC=CC2=C3CCN)c2ccccc12 [BDM-32] | 0.25 | 576 | 624 |  |
| CC1=CC(/C=C/c2cccc(N3CCCC3)c2[N+](=O)[O-])=[N+]2C1=C(CCN)c1cccn1[B-]2(F)F [BDM-357] | 0.04 | 585 | 687 |  |
| CCOc1c(/C=C/C2=[N+]3C(=C(CCN)c4cccn4[B-]3(F)F)C(C)=C2)cccc1OC [BDM-320] | 0.21 | 558 | 569 |  |
| COc1ccc(F)cc1/C=C/C1=[N+]2C(=C(CCN)c3cccn3[B-]2(F)F)C(C)=C1 [BDM-239] | 0.28 | 559 | 572 |  |
| CC1=CC(/C=C/c2ccc3c(c2)OCO3)=[N+]2C1=C(CCN)c1cccn1[B-]2(F)F [BDM-139] | 0.55 | 564 | 584 |  |
| Cc1cc(/C=C/c2ccc(N(C)C)cc2)n2c1C(CCN)=C1C=CC=[N+]1[B-]2(F)F [BDM-2] | 0.01 | 607 | 685 |  |
